Source: PubChem BioAssay AID256 (DTP/NCI, 2004)
“And” between values parts separate entries of the source, which are not always exact repeats. Equal entries are not always repeated. Toxic doses and inconclusive results are not listed. Rule for the calls: active = survival T/C of 150% or more; inactive = T/C below 125% in these data.

Test system: CD2F1 mice, L1210 leukemia ip, survival T/C
Assay: NCI In Vivo Anticancer Drug Screen. Data for tumor model L1210 Leukemia (intraperitoneal) in CD2F1 (CDF1) mice
Conditions: higher = longer survival
Summary of the method: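 Ratio T/C, where T is the treated-group value and C the vehicle-dosed control value, from mice implanted with a transplantable tumor.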

[1] = endpoint: mean survival time, dose: 100.0 mg/kg/injection, schedule: Q01DX009 (ip), vehicle: saline with Tween-80
[2] = endpoint: mean survival time, dose: 100.0 mg/kg/injection, schedule: Q04DX003 (ip), vehicle: saline with Tween-80
[3] = endpoint: mean survival time, dose: 200.0 mg/kg/injection, schedule: Q01DX009 (ip), vehicle: saline with Tween-80
[4] = endpoint: mean survival time, dose: 200.0 mg/kg/injection, schedule: Q04DX003 (ip), vehicle: saline with Tween-80
[5] = endpoint: mean survival time, dose: 400.0 mg/kg/injection, schedule: Q04DX003 (ip), vehicle: saline with Tween-80
[6] = endpoint: mean survival time, dose: 100.0 mg/kg/injection, schedule: Q01DX001 (ip), vehicle: saline
[7] = endpoint: mean survival time, dose: 200.0 mg/kg/injection, schedule: Q01DX001 (ip), vehicle: saline
[8] = endpoint: mean survival time, dose: 400.0 mg/kg/injection, schedule: Q01DX001 (ip), vehicle: saline
[9] = endpoint: mean survival time, dose: 50.0 mg/kg/injection, schedule: Q01DX009 (ip), vehicle: saline with Tween-80

Measured: T/C

CC1(O)CC2CCC1C2 (configuration not stated)
inactive: endpoint: mean survival time, dose: 100.0 mg/kg/injection, schedule: Q04DX003 (ip), vehicle: saline 95 % of control | endpoint: mean survival time, dose: 200.0 mg/kg/injection, schedule: Q04DX003 (ip), vehicle: saline 90 % of control | endpoint: mean survival time, dose: 400.0 mg/kg/injection, schedule: Q04DX003 (ip), vehicle: saline 87 % of control

CC(=O)OCC1OC(n2ncnc2CBr)C(OC(C)=O)C(OC(C)=O)C1OC(C)=O (configuration not stated)
inactive: endpoint: median survival time, dose: 12.5 mg/kg/injection, schedule: Q01DX005 (ip), vehicle: distilled water + Tween-80 108 % of control | endpoint: median survival time, dose: 25.0 mg/kg/injection, schedule: Q01DX005 (ip), vehicle: distilled water + Tween-80 97 % of control | endpoint: median survival time, dose: 50.0 mg/kg/injection, schedule: Q01DX005 (ip), vehicle: distilled water + Tween-80 104 % of control

CCOC(=O)C(C(=O)c1ccccc1)C(c1ccccc1)C(C(=O)OCC)C(=O)c1ccccc1 (configuration not stated)
inactive: [1] 94 % of control | [2] 93 % of control | [3] 94 % of control | [4] 90 % of control | endpoint: mean survival time, dose: 400.0 mg/kg/injection, schedule: Q01DX009 (ip), vehicle: saline with Tween-80 100 % of control | [5] 98 % of control

O=S1(=O)CCC(C2CCCCC2)C1 (configuration not stated)
inactive: [6] 95 % of control | [7] 98 % of control | [8] 106 % of control

COc1ccc2c(c1)c(C(=O)O)cc(=O)n2C
inactive: endpoint: mean survival time, dose: 100.0 mg/kg/injection, schedule: Q01DX009 (ip), vehicle: saline sonified 101 % of control | [2] 97 % of control | endpoint: mean survival time, dose: 200.0 mg/kg/injection, schedule: Q01DX009 (ip), vehicle: saline sonified 95 % of control | [4] 102 % of control | endpoint: mean survival time, dose: 400.0 mg/kg/injection, schedule: Q01DX009 (ip), vehicle: saline sonified 95 % of control | [5] 96 % of control

CC1(C)COC(CC2(O)CCCCCC2)=N1
inactive: endpoint: mean survival time, dose: 100.0 mg/kg/injection, schedule: Q04DX002 (ip), vehicle: saline with Tween-80 101 % of control | [2] 95 % of control | endpoint: mean survival time, dose: 200.0 mg/kg/injection, schedule: Q04DX002 (ip), vehicle: saline with Tween-80 96 % of control | [4] 88 % of control | endpoint: mean survival time, dose: 400.0 mg/kg/injection, schedule: Q04DX002 (ip), vehicle: saline with Tween-80 101 % of control | [5] 93 % of control

COc1ccc(C(=Cc2cc(OC(C)=O)c3ccccc3c2OC(C)=O)c2ccc(OC)cc2)cc1
inactive: [2] 97 % of control | [4] 89 % of control | [5] 91 % of control

C=C[Si]1(C)O[Si](C)(C=C)O[Si](C)(C=C)O1 (configuration not stated)
inactive: [9] 93 % of control | [1] 104 % of control | [3] 93 % of control

O=C(O)C1=CC=C(c2ccccc2)C(=O)C1
inactive: endpoint: mean survival time, dose: 12.5 mg/kg/injection, schedule: Q01DX009 (ip), vehicle: saline with Tween-80 100 % of control | endpoint: mean survival time, dose: 25.0 mg/kg/injection, schedule: Q01DX009 (ip), vehicle: saline with Tween-80 98 % of control | [9] 88 % of control and 90 % of control | endpoint: mean survival time, dose: 100.0 mg/kg/injection, schedule: Q01DX001 (ip), vehicle: saline with Tween-80 97 % of control | endpoint: mean survival time, dose: 200.0 mg/kg/injection, schedule: Q01DX001 (ip), vehicle: saline with Tween-80 93 % of control

Cn1c(=O)c2c(ncn2CCSS(=O)(=O)O)n(C)c1=O
inactive: endpoint: mean survival time, dose: 12.5 mg/kg/injection, schedule: Q01DX005 (ip), vehicle: water 100 % of control | endpoint: mean survival time, dose: 25.0 mg/kg/injection, schedule: Q01DX005 (ip), vehicle: water 94 % of control | endpoint: mean survival time, dose: 50.0 mg/kg/injection, schedule: Q01DX005 (ip), vehicle: water 102 % of control | endpoint: mean survival time, dose: 100.0 mg/kg/injection, schedule: Q01DX005 (ip), vehicle: water 100 % of control | endpoint: mean survival time, dose: 200.0 mg/kg/injection, schedule: Q01DX005 (ip), vehicle: water 98 % of control

N#CSCN1C(=O)C2CC=CCC2C1=O (configuration not stated)
inactive: endpoint: mean survival time, dose: 6.25 mg/kg/injection, schedule: Q04DX003 (ip), vehicle: saline with Tween-80 103 % of control | endpoint: mean survival time, dose: 12.5 mg/kg/injection, schedule: Q04DX003 (ip), vehicle: saline with Tween-80 101 % of control

Cc1ccc2nc(O)cc(=O)n2c1
inactive: endpoint: mean survival time, dose: 50.0 mg/kg/injection, schedule: Q01DX001 (ip), vehicle: saline 103 % of control | [6] 103 % of control | [7] 97 % of control | [8] 94 % of control

CCOP(=S)(OCC)Oc1cccc(NC(=O)N(C)C)c1
inactive: [2] 96 % of control | [4] 91 % of control | [5] 99 % of control

O=[N+]([O-])c1ccc(CCCl)c(CCl)c1
inactive: [2] 98 % of control | [4] 86 % of control

Cc1ccc(C(=O)Nc2ccc(S(=O)(=O)O)c3cc(S(=O)(=O)O)cc(S(=O)(=O)O)c23)cc1NC(=O)c1cccc(NC(=O)Nc2cccc(C(=O)Nc3cc(C(=O)Nc4ccc(S(=O)(=O)O)c5cc(S(=O)(=O)O)cc(S(=O)(=O)O)c45)ccc3C)c2)c1
inactive: endpoint: median survival time, dose: 12.5 mg/kg/injection, schedule: Q01DX005 (ip), vehicle: saline 101 % of control | endpoint: median survival time, dose: 25.0 mg/kg/injection, schedule: Q01DX005 (ip), vehicle: saline 101 % of control | endpoint: median survival time, dose: 50.0 mg/kg/injection, schedule: Q01DX005 (ip), vehicle: saline 116 % of control
